# Assay results from US4073913A, “N^2 -arylsulfonyl-L-argininamides and the pharmaceutically acceptable salts thereof” (Mitsubishi Chemical Industries Limited, priority 1974, dated 1978).
# Non-standard residues stand in square brackets, D forms with d. Residues, ends and D or L forms follow the SMILES beside them. ξ: configuration not given here. *: point of attachment. Dansyl = CN(C)c1cccc2c(S(=O)(=O)*)cccc12; ξPip = O=C(O)C1CCCCN1
# Biological target: T1, thrombin (Bos taurus, UniProt P00735)
# T1 construct: clotting of bovine fibrinogen
# Test: fibrinogen coagulation time (concentration required to prolong the coagulation time by a factor of two)
# Format: biochemical
# Details: bovine fibrinogen, thrombin 5 units/ml, borate saline buffer pH 7.4, 25° C; control 50-55 seconds prolonged to 100-110 seconds
# Procedure: The measurement of the fibrinogen coagulation time was conducted as follows:
# Immediately after mixing, the reaction mixture was transferred from the ice bath to a bath maintained at 25° C. Coagulation times were taken as the period between the time of transference to the 25° C bath and the time of the first appearance of fibrin threads. […] The term "concentration required to prolong the coagulation time by a factor of two" is the concentration of an active ingredient required to prolong the normal coagulation time 50-55 seconds to 100-110 seconds.
row,SMILES,IC (2-fold clotting time) [µM]
1,Cc1ccc2ccc(S(=O)(=O)N[C@@H](CCCNC(=N)N)C(=O)N3CCC(C)CC3C(=O)O)cc2c1 (stereo partly shown) [compound 173],0.2
2,COc1cc2ccc(S(=O)(=O)N[C@@H](CCCNC(=N)N)C(=O)N(CCC(=O)O)CCc3ccccc3)cc2cc1OC [compound 56],50
3,COc1cc2ccc(S(=O)(=O)N[C@@H](CCCNC(=N)N)C(=O)N(CC(=O)O)CC(C)OC)cc2cc1OC (stereo partly shown) [compound 212],6.5
4,COCCN(CCCC(=O)O)C(=O)[C@H](CCCNC(=N)N)NS(=O)(=O)c1ccc2cc(OC)c(OC)cc2c1 [compound 17],2.5
5,CCCCN(CC(=O)O)C(=O)[C@H](CCCNC(=N)N)NS(=O)(=O)c1ccc2ccc(C)cc2c1 [compound 143],0.3
6,CCCCN(CC(=O)O)C(=O)[C@H](CCCNC(=N)N)NS(=O)(=O)c1ccc2ccc(OC)cc2c1 [compound 39],0.5
7,COc1ccc2cc(S(=O)(=O)N[C@@H](CCCNC(=N)N)C(=O)N(CCCC(=O)O)Cc3ccccc3)ccc2c1 [compound 60],50
8,CCCCCN(CC(=O)O)C(=O)[C@H](CCCNC(=N)N)NS(=O)(=O)c1ccc2cc(OC)c(OC)cc2c1 [compound 7],5
9,COc1cc2ccc(S(=O)(=O)N[C@@H](CCCNC(=N)N)C(=O)N3CCCC[C@H]3C(=O)O)cc2cc1OC [compound 221],15
10,COc1cc2ccc(S(=O)(=O)N[C@@H](CCCNC(=N)N)C(=O)N(CC(=O)O)C3CCCCC3)cc2cc1OC [compound 111],5
11,CN(C)c1cccc2c(S(=O)(=O)N[C@@H](CCCNC(=N)N)C(=O)N3CCCCC3C(=O)O)cccc12 (stereo partly shown) [compound 183] (Dansyl-Arg-[ξPip]-OH),0.35
12,CCCCN(CC(=O)O)C(=O)[C@H](CCCNC(=N)N)NS(=O)(=O)c1cccc2c1CCCC2 [compound 130],20
13,COc1ccc2ccc(S(=O)(=O)N[C@@H](CCCNC(=N)N)C(=O)N3CCCCCC3C(=O)O)cc2c1 (stereo partly shown) [compound 205],2.5
14,CCCCCCN(CC(=O)O)C(=O)[C@H](CCCNC(=N)N)NS(=O)(=O)c1ccc2cc(OC)c(OC)cc2c1 [compound 9],1.5
15,CCCCCCCCOC(=O)CN(CCOC)C(=O)[C@H](CCCNC(=N)N)NS(=O)(=O)c1ccc2cc(OC)c(OC)cc2c1 [compound 200],2
16,COCCN(C(=O)[C@H](CCCNC(=N)N)NS(=O)(=O)c1ccc2cc(OC)c(OC)cc2c1)C(C)C(=O)O (stereo partly shown) [compound 129],5
17,COc1cc2ccc(S(=O)(=O)N[C@@H](CCCNC(=N)N)C(=O)N(CC(=O)O)CC(C)C)cc2cc1OC [compound 5],2
18,COCCN(CC(=O)O)C(=O)[C@H](CCCNC(=N)N)NS(=O)(=O)c1cccc2cc(C)c(C)cc12 [compound 152],10
19,COc1cc2ccc(S(=O)(=O)N[C@@H](CCCNC(=N)N)C(=O)N(CCC(=O)O)Cc3ccccc3)cc2cc1OC [compound 52],10
20,COc1cc2ccc(S(=O)(=O)N[C@@H](CCCNC(=N)N)C(=O)N3CCCC[C@@H]3C(=O)O)cc2cc1OC [compound 220],2
21,COc1cc2ccc(S(=O)(=O)N[C@@H](CCCNC(=N)N)C(=O)N(CCc3ccccc3)CC(=O)O)cc2cc1OC [compound 54],3
22,Cc1ccc2ccc(S(=O)(=O)N[C@@H](CCCNC(=N)N)C(=O)N3CCC(C(C)C)CC3C(=O)O)cc2c1 (stereo partly shown) [compound 175],0.1
23,COCCN(CC(=O)Oc1ccc2c(c1)CCC2)C(=O)[C@H](CCCNC(=N)N)NS(=O)(=O)c1ccc2cc(OC)c(OC)cc2c1 [compound 203],30
24,COc1cc2ccc(S(=O)(=O)N[C@@H](CCCNC(=N)N)C(=O)N3Cc4ccccc4CC3C(=O)O)cc2cc1OC (stereo partly shown) [compound 194],2
25,Cc1ccc2ccc(S(=O)(=O)N[C@@H](CCCNC(=N)N)C(=O)N(CC(=O)O)CC3CCCO3)cc2c1 (stereo partly shown) [compound 161],0.2
